Results published in patent US20250345340A1, “METHODS FOR THE PREVENTION AND TREATEMENT OF POST-OPERATIVE ABDOMINAL ADHESIONS” (UNIVERSITY OF ROCHESTER, priority 2024, published 2025).
Entries after “also recorded” stand apart in the source; their conditions may differ.

Key:
lung fibroblasts = conditions: cited from earlier work
[1] = tested on: post-operative abdominal adhesions; assay: Murine abdominal adhesion surgery model (cecum and abdominal wall abrasion, silk sutures, starch); format: in vivo, C57Bl/6J mice
From the text: Murine Abdominal Adhesion Surgery: Mature adult (16-20-week-old) C57Bl/6J male and female mice underwent abdominal surgery to induce adhesions consistent with those observed postoperatively in clinical settings. Briefly, following sedation, a vertical midline laparotomy incision, extending from the xyphoid process to just above the bladder (˜4 cm), is made through the abdominal skin and musculature. The cecum is identified and eviscerated, followed by gentle abrasion with sterile 100-grit sandpaper for 30-60 seconds. Hemostasis is ensured and the cecum is then returned to the abdominal cavity. The abdominal wall is then abraded with sterile 100-grit sandpaper, followed by placement of two-four 4-0 silk sutures, which are placed into the abdominal wall. The intestines are then irrigated with warmed sterile saline, and hemostasis is confirmed. A small pinch of sterile autoclaved rice starch is then sprinkled on the cecum and abdominal sidewall. The laparotomy is closed with absorbable, interrupted sutures used to reapproximate the fascia and followed by sutures to close the skin. The skin is closed with skin adhesive.
Scoring of gross adhesion formation: At time of harvest, digital photographic images will be taken of the abdominal cavity of each mouse, with images standardized to a lateral reflection of abdominal wall prior to manipulation of intra-abdominal contents. These images are then curated in a Research Electronic Data Capture (RedCap)-based survey for blinded scoring. Adhesions are scored from 0-5: with ‘0’ indicating no adhesions; 1: a single thin, filmy adhesion; 2: more than one filmy adhesion; 3: one thick adhesion with focal attachment (+thin filmy adhesions); 4: one thick adhesion with broad planar attachment (+thin filmy adhesions); and 5: >1 thick adhesion with broad planar attachment, or >1 thick vascular adhesion with planar attachment (+thin filmy adhesions). Images are scored by at least 5 surgeons trained on the scoring process, with the mean of these scores reported for each mouse.
Histological assessment of adhesions and ileal smooth muscle hypertrophy: Following digital image capture, the area of adhesion between the abdominal wall and bowel (or other organs), including any bowel: bowel adhesions is isolated, fixed in 10% neutral buffered formalin, and processed for paraffin histology. In cases of adhesion absence, the abdominal wall and cecum are harvested and sectioned separately. Five-micron transverse sections are cut through the tissue. To ensure accurate quantification of adhesions, tissue sections are collected through multiple depths through the tissue. […] Adhesion extent (length and cross-sectional area) along both the abdominal wall/cecal surface and between organs are quantified from H&E images by ≥2 blinded observers. […]
At harvest, the study took pictures of the peritoneal cavity, which were scored by 4 blinded, board certified surgeons adhesion scores ranged from 0 (none) to 5 (dense, vascular, adhesions).
The study chose the area of highest visible fibrosis and adhesion density. […] Adhesions were then measured in micrometers. Length of adhesions between the bowel to abdominal wall and bowel to bowel were measured. The total adhesion density (excluding abdominal wall fibrosis) was then measured by cross section. […]

Nc1nc(NCc2ccccc2)nc(-c2ccccc2CO)n1 [ogerin]
TGF-b-induced myofibroblast differentiation (lung fibroblasts): blunts
reversion to a basal fibroblast phenotype following TGF-β-induced myofibroblast differentiation (lung fibroblasts): can promote reversion
length of adhesions between the bowel and abdominal wall and bowel to bowel ([1]; histology, POD10, vs control): reduction in length of adhesions
overall adhesion cross section (total adhesion burden by area) ([1]; histology, POD10, vs control): significantly lower; also recorded: reduces total adhesion burden
clinical adhesion score (0-5, blinded surgeons) ([1]; ogerin injected POD 0-5, harvest POD10, vs vehicle): reduces clinical adhesion score; also recorded: significantly lower
adhesion formation (gross) ([1]; ogerin injected POD 0-5, harvest POD10, vs vehicle DMSO:Saline 60:40): blunts adhesion formation; also recorded: substantial decrease in adhesion formation
mice demonstrating a complete lack of adhesion formation ([1]; ogerin injected POD 0-5, harvest POD10, all vehicle mice formed robust adhesions): 3 out of 4
